# Experimental data as given in patent US7767648B2, “Tissue specific prodrugs” (priority 2000, dated 2010).
# Numbered stars: 1 amine (or outer) side, 2 acyl side, 3 side chain; on linkers, the order of the positions; unused ones are H or OH. Square brackets hold non-standard residues; d marks the D form. Peptide text beside a SMILES is read from it. γGlu = O=C(O)[C@H](CCC(=O)[*:2])N[*:1]
# Tests used:
# [1] = Cytotoxic activity of thapsigargin and its debutanoyl derivative; format: cell-based; conditions: cell line not stated
# Experimental: The starting material for all the synthesized analogs is 8-O-debutanoylthapsigargin, which is easily available by triethylamine catalyzed methanolysis of thapsigargin. Removal of the butanoyl results in loss of cytotoxic activity with an LD50 of >50 μM compared to <100 nM for thapsigargin. Anhydrides of dicarboxylic acids of various lengths afforded analogs in which the acyl group attached to the O-8 ended in a free carboxylic acid. A dicyclohexylcarbodiimide (DCCI) promoted coupling of a 2,4-diaminoarene to the carboxylic acid analogs affords the derivatives in which contain a primary aromatic amine as a potential coupling point for additional moeities.
# [2] = Stability of PSMA substrates in human plasma, 18 hour incubation, HPLC; format: in vitro ADME; conditions: for stability in serum (in words): species not stated; for remaining at 18 h / % APA-Glu or -Asp: 18 hour incubation in human plasma; for remaining at 18 h: HPLC peak area of starting material over all peaks, read-out: % Prodrug Remaining; for % APA-Glu or -Asp: hydrolysis of substrate to APA-Asp or APA-Glu
# Description: (§1) In order that the prodrugs can be administered systemically via the blood, their stability in sera must be sufficiently high to avoid hydrolysis or other degradative processes which may occur prior to the prodrugs reaching their target tissues. In addition to GGH activity, a human blood plasma glutamate carboxypeptidase (PGCP) that has significant sequence homology to PSMA and glutamate carboxypeptidase activity has been identified. Therefore, to assay hydrolysis by GGH and other serum carboxypeptidases like PGCP, the APA-Glu*Glu*Glu*Glu*Asp, APA-Glu*Glu*Glu*Glu*Gln, and APA-Glu*Glu*Glu*Glu*Glu substrates were incubated in human and mouse plasma and hydrolysis determined by HPLC analysis after an 18-hour incubation, as shown in Table 3. As noted, GGH efficiently hydrolyzes poly-γ-glutamate chains as well as poly-γ-glutamated folate and methotrexate. GGH, however, is unable to hydrolyze α-linked peptides.
# (§2) In Tables 1-3, to simplify identification of the type of amino acid linkages employed, α-linkages are denoted by a hyphen (for example, Glu-Glu) and all side-chain linkages are denoted by a star (for example, Glu*Glu). The column labeled “% PSMA Hydrolysis” refers to the percentage of hydrolysis of a substrate to APA-Asp or to APS-Glu by purified PSMA. The column labeled “% APA-Asp or -Glu” refers to the percentage of hydrolysis of substrate to APA-Asp or APA-Glu. The column labeled “% Prodrug Remaining” refers to the area of the HPLC peak attributable to starting material divided by the areas of HPLC peaks attributable to starting material, intermediate products, and final products. […] “ND” means “not determined,” in that the experiment was not performed.
# [3] = Stability of PSMA substrates in mouse plasma, 18 hour incubation, HPLC; format: in vitro ADME; conditions: for % APA-Glu or -Asp: 18 hour incubation in mouse plasma
# Description: as §1, §2
# [4] = test system: TSU cancer cells; test: Loss of clonogenic survival of TSU cancer cells after exposure to methotrexate analogs; format: cell-based; conditions: 48 hours of exposure
# Description: A number of methotrexate analogs were studied for their effect on clonogenic survival of TSU cancer cells. One such analog is L-aspartic acid, N-[4-[[(2,4-diamino-5-ethyl-6-quiazolinyl)methyl]amino]benzoyl]-sesquihydrate, also known as NSC 184692, available from the NCI Developmental Therapeutics Branch. Another compound is L-aspartic acid, N-[2-chloro-5-[[(2,4-diamino-5-methyl-6-quiazolinyl)methyl]amino]benzoyl]-dihydrate, also known as NSC 132483. Another compound is L-aspartic acid, N-[2-chloro-4-[[(2,4-diamino-6-pteridinyl)methyl]amino]benzoyl]-monohydrate, also known as NSC 134033.
# The loss of clonogenic survival following treatment of TSU cancer cells with NSC 184692 and 132483 has been investigated after 48 hours of exposure, and the results are listed in Table 4.
# [5] = biological target: PSMA (Homo sapiens, UniProt Q04609); test: Hydrolysis of methotrexate analog substrates by purified PSMA (HPLC); format: biochemical; conditions: for % PSMA hydrolysis 24 h / % PSMA hydrolysis 48 h: Table 3, hydrolysis of substrate to APA-Asp or APA-Glu by purified PSMA
# Sequence of PSMA (Q04609 whole entry): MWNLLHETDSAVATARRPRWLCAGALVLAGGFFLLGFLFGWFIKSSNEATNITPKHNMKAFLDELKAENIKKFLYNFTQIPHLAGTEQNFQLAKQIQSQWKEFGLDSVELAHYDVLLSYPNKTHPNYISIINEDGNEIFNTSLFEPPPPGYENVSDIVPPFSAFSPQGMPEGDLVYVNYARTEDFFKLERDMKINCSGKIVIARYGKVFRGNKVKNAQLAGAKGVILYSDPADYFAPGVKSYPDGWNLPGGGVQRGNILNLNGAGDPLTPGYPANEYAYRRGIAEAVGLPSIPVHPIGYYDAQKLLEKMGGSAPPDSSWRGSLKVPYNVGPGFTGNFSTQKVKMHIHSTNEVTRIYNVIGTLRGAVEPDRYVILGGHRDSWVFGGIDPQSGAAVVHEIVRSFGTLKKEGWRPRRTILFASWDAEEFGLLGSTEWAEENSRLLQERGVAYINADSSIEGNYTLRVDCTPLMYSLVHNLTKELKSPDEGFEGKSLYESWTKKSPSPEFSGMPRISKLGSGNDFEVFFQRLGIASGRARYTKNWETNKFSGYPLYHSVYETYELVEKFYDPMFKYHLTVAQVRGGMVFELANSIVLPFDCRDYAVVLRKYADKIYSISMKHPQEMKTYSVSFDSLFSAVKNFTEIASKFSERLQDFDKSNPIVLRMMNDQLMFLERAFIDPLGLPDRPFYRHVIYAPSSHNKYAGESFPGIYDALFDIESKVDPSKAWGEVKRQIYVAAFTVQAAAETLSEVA
# Experimental: The extent to which various peptide substrates are hydrolyzed by PSMA was determined by synthesizing a series of methotrexate analogs including the 4-N[N-2,4-diamino-6-pteridinyl-methyl)-N-methylamino-benzoate] (APA) portion of methotrexate coupled to a variety of peptides. Poly-glutamated methotrexate is available from Schirks Laboratories in Jona, Switzerland.
# A series of α-linked peptides were investigated for PSMA hydrolysis. […] In Tables 1-3, to simplify identification of the type of amino acid linkages employed, α-linkages are denoted by a hyphen (for example, Glu-Glu) and all side-chain linkages are denoted by a star (for example, Glu*Glu).
# Substrate specificity for the pteroyl poly-γ-glutamyl carboxypeptidase (folate hydrolase) activity of PSMA was determined by synthesizing a series of γ-linked methotrexate analogs and assaying them for hydrolysis by PSMA.
# as §2
# [6] = test system: prostate cancer cells; test: Induction of apoptotic death of prostate cancer cells; format: cell-based; conditions: cell-proliferation independent
# Experimental: The TG analog was synthesized by coupling the primary amine of 12ADT to the γ-carboxyl of glutamate, leaving the α-carboxyl of glutamate free to link to other amino acids, as shown in FIG. 2. The 12-ADT*Glu is a potent, cell-proliferation independent inducer of the apoptotic death of prostate cancer cells (LD50 is approximately 50 nM). The corresponding analog consisting of 12-ADT linked to the α-carboxyl of glutamate (that is, 12ADT-Glu) is also a suitable analog, as shown in FIG. 2. The prodrug containing 12ADT*Glu coupled to the longer amino acid chain (that is, 12ADT*Glu-Glu*Glu*Asp-Glu) can also be a suitable substrate. The 12ADT-Glu*Glu*Glu*Asp-Glu prodrug may also be cleaved by PSMA, which may cleave the last peptide bond in the absence of a free α-carboxyl. […] This analog can then be linked via either the α- or γ-carboxyl to a peptide chain.
compound,measurement,setting,value
C/C=C(/C)C(=O)O[C@H]1C(C)=C2[C@H]([C@@H]1OC(=O)CCCCCCC)[C@@](C)(OC(C)=O)C[C@H](O)[C@@]1(O)[C@H]2OC(=O)[C@@]1(C)O [8-O-debutanoylthapsigargin],LD50 (cytotoxic activity),[1],> 50 µM
C/C=C(/C)C(=O)O[C@H]1C(C)=C2[C@H]([C@@H]1OC(=O)CCCCCCC)[C@@](C)(OC(C)=O)C[C@H](OC(=O)CCC)[C@@]1(O)[C@H]2OC(=O)[C@@]1(C)O [thapsigargin],LD50 (cytotoxic activity),[1],< 0.1 µM
N[C@@H](CC(=O)O)C(=O)N[C@@H](CCC(=O)N[C@@H](CCC(=O)N[C@@H](CC(=O)O)C(=O)N[C@@H](CCC(=O)O)C(=O)O)C(=O)O)C(=O)O [Asp-Glu*Glu*Asp-Glu] (H-D[γGlu][γGlu]DE-OH; C-terminus assumed),stability to hydrolysis in human plasma (in words),[2]; human plasma,completely stable to hydrolysis
same,stability to hydrolysis in mouse plasma (in words),[3]; mouse plasma,completely stable to hydrolysis
"CCc1c(CNc2ccc(C(=O)N[C@@H](CC(=O)O)C(=O)O)cc2)ccc2nc(N)nc(N)c12.CCc1c(CNc2ccc(C(=O)N[C@@H](CC(=O)O)C(=O)O)cc2)ccc2nc(N)nc(N)c12.O.O.O [NSC 184692, L-aspartic acid, N-[4-[[(2,4-diamino-5-ethyl-6-quiazolinyl)methyl]amino]benzoyl]-sesquihydrate]",Loss of clonogenic survival,[4]; 0.01 μmolar,17%
same,Loss of clonogenic survival,[4]; 0.05 μmolar,44%
same,Loss of clonogenic survival,[4]; 0.1 μmolar,57%
same,Loss of clonogenic survival,[4]; 0.5 μmolar,82%
same,Loss of clonogenic survival,[4]; 1 μmolar,88%
same,Loss of clonogenic survival,[4]; 5 μmolar,93%
NC(=O)CC[C@H](NC(=O)[C@H](CC(=O)O)NC(=O)CC[C@H](NC(=O)CC[C@H](NC(=O)CC[C@H](N)C(=O)O)C(=O)O)C(=O)O)C(=O)O [Glu*Glu*Glu*Asp-Gln] ({γGlu-γGlu-γGlu}-Asp-Gln-OH; C-terminus assumed),stability in serum (in words),[2],high stability in serum
CN(Cc1cnc2nc(N)nc(N)c2n1)c1ccc(C(=O)N[C@@H](CC(=O)O)C(=O)N[C@@H](CCC(=O)N[C@@H](CCC(=O)N[C@@H](CC(=O)O)C(=O)N[C@@H](CCC(=O)O)C(=O)O)C(=O)O)C(=O)O)cc1 [APA-Asp-Glu*Glu*Asp-Glu],remaining at 18 h,[2],100%
same,% APA-Glu or -Asp,[2],0%
same,% APA-Glu or -Asp,[3],2%
CN(Cc1cnc2nc(N)nc(N)c2n1)c1ccc(C(=O)N[C@@H](CC(=O)O)C(=O)N[C@@H](CCC(=O)O)C(=O)O)cc1 [APA-Asp-Glu],remaining at 18 h,[2],99%
same,% APA-Glu or -Asp,[2],1%
same,hydrolysis in human serum (in words),"[2]; 18 hour incubation in human serum, HPLC",no significant hydrolysis
"CN(Cc1cnc2nc(N)nc(N)c2n1)c1ccc(C(=O)N[C@@H](CCC(=O)N[C@@H](CCC(=O)N[C@@H](CCC(=O)N[C@@H](CCC(=O)N[C@@H](CCC(=O)O)C(=O)O)C(=O)O)C(=O)O)C(=O)O)C(=O)O)cc1 [APA-Glu*Glu*Glu*Glu*Glu, reference compound]",remaining at 18 h,[2],11%
same,% APA-Glu or -Asp,[2],11%
same,% PSMA hydrolysis 24 h,[5],96%
same,% PSMA hydrolysis 48 h,[5],100%
same,% APA-Glu or -Asp,[3],68%
CN(Cc1cnc2nc(N)nc(N)c2n1)c1ccc(C(=O)N[C@@H](CCC(=O)N[C@@H](CCC(=O)N[C@@H](CCC(=O)N[C@@H](CC(=O)O)C(=O)N[C@@H](CCC(N)=O)C(=O)O)C(=O)O)C(=O)O)C(=O)O)cc1 [APA-Glu*Glu*Glu*Asp-Gln],remaining at 18 h,[2],76%
same,% APA-Glu or -Asp,[2],13%
"O=C(O)c1cc[c]([Hg+])cc1.[OH-] [p-hydroxymercuribenzoate, reference compound]",effect of added inhibitor on hydrolysis of the substrates in plasma,[3]; addition of the non-specific inhibitor of GGH and other cysteine proteases,complete inhibition of hydrolysis
N-L-γ-glutamyl-12-aminododecanoyl-8-0-debutanoyl Thapsigargin [12-ADT*Glu],LD50 (apoptotic death of prostate cancer cells),[6],approximately 50 nM
CN(Cc1cnc2nc(N)nc(N)c2n1)c1ccc(C(=O)N[C@@H](CCC(=O)N[C@@H](CCC(=O)N[C@@H](CCC(=O)N[C@@H](CC(=O)O)C(=O)N[C@@H](CCC(=O)O)C(=O)O)C(=O)O)C(=O)O)C(=O)O)cc1 [APA-Glu*Glu*Glu*Asp-Glu],remaining at 18 h,[2],57%
same,% APA-Glu or -Asp,[2],23%
same,% APA-Glu or -Asp,[3],5%
"Cc1c(CNc2ccc(Cl)c(C(=O)N[C@@H](CC(=O)O)C(=O)O)c2)ccc2nc(N)nc(N)c12.O.O [NSC 132483, L-aspartic acid, N-[2-chloro-5-[[(2,4-diamino-5-methyl-6-quiazolinyl)methyl]amino]benzoyl]-dihydrate]",Loss of clonogenic survival,[4]; 0.01 μmolar,0%
same,Loss of clonogenic survival,[4]; 0.05 μmolar,0%
same,Loss of clonogenic survival,[4]; 0.1 μmolar,14%
same,Loss of clonogenic survival,[4]; 0.5 μmolar,39%
same,Loss of clonogenic survival,[4]; 1 μmolar,50%
same,Loss of clonogenic survival,[4]; 5 μmolar,78%
CN(Cc1cnc2nc(N)nc(N)c2n1)c1ccc(C(=O)N[C@@H](CCC(=O)N[C@@H](CCC(=O)N[C@@H](CCC(=O)N[C@@H](CCC(=O)N[C@@H](CCC(N)=O)C(=O)O)C(=O)O)C(=O)O)C(=O)O)C(=O)O)cc1 [APA-Glu*Glu*Glu*Glu*Gln],remaining at 18 h,[2],26%
same,% APA-Glu or -Asp,[2],6%
same,% PSMA hydrolysis 24 h,[5],97%
same,% PSMA hydrolysis 48 h,[5],100%
same,hydrolysis by PSMA (in words),[5]; text summary of the tables,to a greater extent after 24 hours than any of the γ-linked dipeptide analogs
same,% APA-Glu or -Asp,[3],62%
N[C@@H](CCC(=O)N[C@@H](CCC(=O)N[C@@H](CCC(=O)N[C@@H](CC(=O)O)C(=O)N[C@@H](CCC(=O)O)C(=O)O)C(=O)O)C(=O)O)C(=O)O [Glu*Glu*Glu*Asp-Glu] ({γGlu-γGlu-γGlu}-Asp-Glu-OH; C-terminus assumed),stability in serum (in words),[2],high stability in serum
